Experimental data published in patent US20240307485A1, “WS635 USES THEREOF IN MEDICINE” (WATERSTONE PHARMACEUTICALS (WUHAN) CO., LTD., priority 2021, published 2024).
Entries after “also recorded” stand apart in the source; their conditions may differ.

How the values were obtained:
[1] = test system: wound healing model of SD rats; assay: Skin wound healing model in SD rats (full-thickness circular skin wound, 2 cm diameter); format: in vivo; settings: for wound area compared with the model group: once a day, WS635 oral 52.8 mg/kg, rb-bFGF external 262.5 IU/cm2, P<0.05, P<0.01; for wound healing rate over the administration cycle: once a day for 7 days, time course
Description: Eighteen 6-week-old male SD rats were randomly divided into 3 groups: model group, test article group and positive control group, with 6 rats in each group. Skin wound surgery was performed after anesthesia, and oral administration was started 2 h after skin wound formation. All rats were raised in a single cage. […]. The surgical details were as follows: All animals were anesthetized with 10% chloral hydrate solution (3 mL/kg) by intraperitoneal injection, their backs were depatured with pet shaving knives, and a circular mark with a diameter of 2 cm was made. After the skin was disinfected with alcohol, the full layer of skin was removed with surgical scissors along the marking line, and the wound surface was pressed to stop bleeding. The model group was orally given 10% DMSO corn oil, the test group was orally given WS635 (corn oil dissolved in 10% DMSO) at 52.8 mg/kg, and the positive control group was given 262.5 IU/cm2 (62.5 μL/cm^2) recombinant bovine basic fibroblast growth factor (rb-bFGF) external solution, once a day for 7 days. Digital photos were taken of the wound of each rat under the same conditions. The wound was recorded with plastic transparent paper, and the wound area was scanned by image J software after the wound was recorded with plastic transparent paper. Wound healing rate was calculated according to wound area (%)=(area after administration−area before administration)/area before administration 100%.

[2] = Toxicity test of repeated oral administration for 9 days in rats; settings: rat, in vivo, read-out: NOAEL (No Observed Adverse Effect Level) dose
[3] = test system: angiogenesis; assay: Angiogenesis in rats; format: in vivo

Row | Compound | wound area compared with the model group ([1]; Day 3) | wound area compared with the model group ([1]; Day 7) | wound healing effect of WS635 compared with rb-bFGF ([1]; WS635 oral 52.8 mg/kg vs rb-bFGF 262.5 IU/cm2, P>0.05, 52.8 mg/kg) | wound healing rate over the administration cycle [1] | wound healing (overall conclusion) ([1]; oral administration, SD rats) | NOAEL at 9 days [2] [mg/kg/day] | angiogenesis [3]
1 | C/C=C/C[C@@H](C)[C@@H](O)[C@H]1C(=O)N[C@@H](CC)C(=O)N(C)[C@H](SCCN(C)C)C(=O)N(C)[C@@H](CC(C)(C)O)C(=O)N[C@@H](C(C)C)C(=O)N(C)[C@@H](CC(C)C)C(=O)N[C@@H](C)C(=O)N[C@H](C)C(=O)N(C)[C@@H](CC(C)C)C(=O)N(C)[C@@H](CC(C)C)C(=O)N(C)[C@@H](C(C)C)C(=O)N1C [WS635, (3S,6S,9S,12R,15S,18S,21S,24S,27R,30S,33S)-27-((2-(dimethylamino)ethyl)thio)-30-ethyl-3 3-((1R,2R,E)-1-hydroxy-2-methylhex-4-en-1-yl)-24-(2-hydroxy-2-methylpropyl)-6,9,18-triisobutyl-3,21-diisopropyl-1,4,7,10,12,15,19,25,28-nonamethyl-1,4,7,10,13,16,19,22,25,28,31-undecaazacyclotritriacontan-2,5,8,11,14,17,20,23,26,29,32-undecaone] | decreased significantly | decreased significantly | equivalent to rb-bFGF; also recorded: no significant difference | enhances wound healing rate in a time-dependent manner; also recorded: increased with the extension of administration time | significantly promote wound healing | 80 | significantly promote angiogenesis
2 | rb-bFGF: recombinant bovine basic fibroblast growth factor (rb-bFGF) external solution, positive control | decreased significantly | decreased significantly | – | increased with the extension of administration time | – | – | –
